In data set [1] the target is T1, recombinant 11β-HSD1 enzyme (Homo sapiens (Human), UniProt P28845). The data set can be described thus: 11β-HSD1 reductase activity (HTRF Cortisol Kit). In kind it is biochemical. To be noted: 266 nM cortisone, 333 μM NADPH, read-out: 11b-HSD1 reductase (HTRF) IC50. On the procedure:
Determination of 11β-HSD1 Reductase Activity
First, stock solutions of the compounds were prepared in DMSO at a concentration of […], of which serial dilutions were made in order to determine the efficacy curve.
As for the recombinant 11β-HSD1 enzyme (Cayman Chemical, MI, USA; Item No. 10007815), it was prepared in Tris Buffer 20 mM EDTA 5 mM pH 6.0 (Tris buffer) at different dilutions.
Initially, the enzyme concentration to be used in the assays in order to evaluate the biological activity of the compounds was determined. The Cortisol Kit product (Cisbio, MA, USA; Cat no. 62CRTPEG) was used for that purpose.
The protocol consisted of preparing the reaction buffer, adding 266 nM cortisone and 333 μM NADPH in Tris buffer. Then, this reaction buffer is added to the wells of the HTRF (Homogeneous Time Resolved Fluorescence) reaction plate together with the enzyme in a 4:1 ratio respectively, and incubated for 2 hours at 37° C. In the case of the control wells, two wells with Tris buffer were added, without compounds.
After the incubation time, the reagents of the Cortisol kit were added, Cortisol d2 and Cortisol cryptate in sample ratio, Cortisol d2 and cortisol cryptate 2:1:1, in a quantity according to the size of the well as indicated by the supplier (for the negative control of the kit, the cortisol d2 is replaced by the kit's reconstitution buffer). This reaction is incubated for 1 hour at room temperature in order to later read the fluorescence at 665 and 620 nm.
Once the enzyme concentration to be used has been determined, the cortisol kit protocol is continued to determine the efficacy curve for the compounds. As previously done, a plate for HTRF was prepared adding to each well of the reaction buffer, the recombinant 11β-HSD1 enzyme and the compounds to be assayed in a 3:1:1 ratio, respectively. The plate was subsequently incubated at 37° C. for 2 hours.
After the incubation time, the reagents of the cortisol kit, cortisol d2 and cortisol cryptate, are added, and were incubated again for 1 hour at room temperature. Finally, the fluorescence of each well was determined at 665 and 620 nm.
On the technique in general: In TR-FRET formats the signal depends on donor and acceptor labels being close together.

Data set [2] addresses T1, recombinant 11β-HSD1 enzyme. The data set can be described thus: 11β-HSD1 oxidase activity (HTRF Cortisol Kit). In kind it is biochemical. On the procedure: Determination of 11β-HSD1 Oxidase Activity
The Cortisol Kit (Cisbio) product was used for that purpose.
For the analysis, the compounds are reconstituted in DMSO in a stock of 10 mM concentration, from which serial dilutions were prepared for the efficiency curve.
The recombinant 11β-HSD1 enzyme dilutions were prepared in 20 mM Tris Buffer 5 mM EDTA pH 6.0 (Tris buffer).
Initially, the enzyme concentration to be used was determined. For this purpose, a plate for HRTF was prepared with Tris buffer with 100 nM cortisol and 200 μM NADP+, including in the wells of the plate for HTRF together with the enzyme in a 4:1 ratio, respectively, and incubated for 2 hours at 37° C. After this time, the reagents of the Cortisol kit, Cortisol d2 and Cortisol cryptate in sample ratio, Cortisol d2 and cortisol cryptate 2:1:1 were added, incubating this new reaction for 1 hour at room temperature. Subsequently, the fluorescence was determined at 665 and 620 nm.
An HRTF plate was again prepared, where the reaction buffer, the recombinant 11β-HSD1 enzyme and the compound were added in each well in a 3:1:1 ratio, respectively. The plate was incubated at 37° C. for 2 hours. After the incubation time, the reagents of the cortisol kit, cortisol d2 and cortisol cryptate, were added as indicated above. They were then incubated at room temperature for 1 hour to finally read the fluorescence at 665 and 620 nm.

The nature of data set [3]: In vivo pharmacokinetics in mice, IV and oral. Also noted: species or system male C57BL/6J mice. On the procedure:
The animals were classified according to weight and divided into the following groups (Table 7):
20% Kolliphor and 50% PBS at a concentration of 1 mg/mL. From this solution, a 0.4 mg/mL dilution was made for IV administration.
In intravenous (IV) administration, after each compound was administered to the mice, the mice were separated into groups of 3 and were euthanized at times 5, 10, 15, 30, 60, 120, 240, 260, 480 and 1440 minutes. For oral administration (V.O), the mice were separated into groups of 3 and were euthanized at times 15, 30, 60, 120, 240, 260, 480 and 1440 minutes. To obtain zero-time assays, mice were used to which no compound was administered.
Whole blood was obtained from each animal (in microtubes with EDTA); these samples were centrifuged at 9000 g at a temperature of 4° C. for a period of 5 minutes, obtaining the plasma which was stored at −80° C.
In addition, organs such as brain, liver, muscle, epididymal fat, heart and kidney were obtained from the animals, which were frozen in liquid nitrogen and stored at −80° C.
Plasma samples and brain, liver, epididymal fat, and muscle (tissue) samples were analyzed. 2× in volume of water (weight/volume) was added to the tissue samples while 4× in volume of water (weight/volume) was added to the muscle mixture, after which they were homogenized using a Bullet Blender equipment (Next Advance, USA).
All samples were analyzed as a single point by LC-MS/MS in accordance with the analytical methodology already standardized and presented in application example 3.
To begin, a calibration curve was run. For this purpose, the controls, the plasma and organ samples were prepared by adding 180 μL of cold acetonitrile to these, then vortexed for 15 seconds and centrifuged at 6100 g for 30 seconds at 4° C. The supernatant which was obtained from this procedure was diluted in 2 volumes of 0.2% formic acid in water and transferred to a vial that will allow it to be injected into LC-MS/MS.
The conditions for the LC-MS/MS analysis were: • HPLC: Eksigent UltraLC 100 • Autosampler: Eksigent UltraLC 100-XL at RT • Mobile phase: A-0.1% formic acid in water; B-0.1% formic acid in acetonitrile. • Column: YMC Triart 1.9 μm; 2.0×50 mm • Injection volume: 2 μL • Gradient: 5% B for 0.25 min→5-95% B for 0.75 min→95% B for 2 min→95-5% B for 0.25 min→5% B for 0.25 min • Flow: 0.6 mL/min • Mass Spectrometer: Applied Biosystems/SCIEX QTRAP 4500 • Interface: TurbolonSpray (ESI) at 600° C. • Software: Analyst.

Data set [4] has as its system Madin-Darby Canine Kidney (MDCK) cells transfected with human P-glycoprotein (hMDR1). The settings on record: MDCK-MDR1.
Method: Madin-Darby Canine Kidney (MDCK) cells were used in this assay, which are stably transfected with the gene encoding human P-glycoprotein (hMDR1). These cells were cultured in DMEM medium (Dulbecco's Modified Eagle's Medium) high in glucose and supplemented with 10% fetal bovine serum, 1% 5 mM pyruvate, 1% non-essential amino acids solution X5, 20,000 IU/mL of penicillin G and 20,000 IU/mL of streptomycin, a temperature of 37° C., 90% relative humidity and 5% CO2. These cells were seeded in sterile plates on the fourth day of growth or until reaching 90% confluence.
Ten days before carrying out the transport analysis, cells were seeded in Transwells® inserts (1.12 cm2) at a density of 60,000 cells/cm^2. The monolayers were supplemented every two days with fresh culture medium. […] In parallel, B-A experiments were performed (1.5 mL of donor solution in basolateral compartment and 0.5 mL buffer in apical). The monolayers were incubated while stirring (50 rpm) at a temperature of 37° C. for a period of 2 hours. Additionally, this assay was performed in the presence of the Pgp inhibitor elacridar (5 μM). After the stir time, the inserts were removed, the compartments were sampled and the cells were transferred to HPLC vials by diluting these samples with mobile phase chromatography. These samples were kept at −20° C. until their analysis time. […]

T1 sequence (P28845 whole entry): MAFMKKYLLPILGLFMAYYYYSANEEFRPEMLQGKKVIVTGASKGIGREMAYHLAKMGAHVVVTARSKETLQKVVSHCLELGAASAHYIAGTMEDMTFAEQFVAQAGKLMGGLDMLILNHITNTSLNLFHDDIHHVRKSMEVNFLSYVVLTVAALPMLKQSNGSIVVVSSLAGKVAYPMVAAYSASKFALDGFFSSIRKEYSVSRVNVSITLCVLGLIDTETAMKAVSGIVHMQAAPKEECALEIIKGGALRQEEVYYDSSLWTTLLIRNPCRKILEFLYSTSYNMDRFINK

As for “1-(3-pyridyl)-2-(3-adamantyl-1,2,4-oxadiazol-5-yl)ethane [BD-44]”, in data set [1], the IC50 (usually the concentration that inhibits the measured activity by half) was determined as 3.9 nM. The “11b-HSD1 oxidase (activ rem %) 100 nM” value in data set [2] (remaining activity at 100 nM compound) came to 107.0%. Besides, the “11b-HSD1 oxidase (activ rem %) 100 uM” value in data set [2] (remaining activity at 100 uM compound) is 94.3%. Besides, in data set [3] (IV, 2 mg/Kg, plasma), the AUCExtr amounted to 0.672%, the AUCInf was determined as 369 ng·h/mL, the AUCfinal amounted to 368 ng·h/mL and the CL came to 90.3 mL/min/kg. In data set [3] (IV, 2 mg/Kg, plasma), this substance yielded a Vz of 7.95 L/kg and a t1/2 of 1.02 h. In data set [3] (PO, 10 mg/Kg, plasma), this substance came in with an AUCExtr of 1.39%, an AUCInf of 148 ng·h/mL, an AUCfinal of 146 ng·h/mL and a CL of 1120 mL/min/kg. In data set [3] (PO, 10 mg/Kg, plasma), this substance yielded an F of 8.00%, a Vz of 102 L/kg, a t1/2 of 1.05 h and a tmax of 0.5 h. Besides, in data set [3] (administered intravenously, plasma), the “mean time (of elimination) of the drug” value came to 1.02 h. Besides, the “mean time (of elimination) of the drug” value in data set [3] (administered orally, plasma) amounted to 1.05 h. In addition, the “time post administration up to which compound was detected” value in data set [3] (both intravenously and orally, plasma) is listed as “up to 6 hours”. Moreover, in data set [3] (oral and intravenous administration), the “detection in tissues (brain, liver, fat, muscle)” value was “not detected in the tissues assayed”. The “bioavailability / apparent availability” value in data set [3] (plasma) is on record as “low apparent availability”. Also, the “Papp compared with high permeability marker minoxidil” value in data set [4] is recorded as “higher than those of the high permeability marker minoxidil”.
